According to US20120094939A1, “ANTI-VIRAL COMPOUNDS, COMPOSITIONS AND METHODS” (priority 2007, published 2012):
Read-outs that look alike come from different tables or passages of the source.

Assays:
[1] = tested on: Huh7/Rep-Feo HCV replicon (HCV RNA replication); format: cell-based, Hepatitis C virus (strain HCV—N, genotype 1b)
From the text: Development of the Huh7/Rep-Feo replicon assay. […] This replicon was derived from a chimpanzee infectious clone (strain HCV—N, genotype 1b). In this replicon, the structural genes have been replaced by a reporter gene. The chimeric reporter gene Feo encodes the firefly luciferase protein fused in-frame with neomycin phosphotransferase. This Huh7/Rep-Feo cell supports high levels of autonomous HCV RNA replication because it was derived from the HCV—N strain, which carries an adaptive mutation in NSSA that confers highlevel replication in tissue culture. Furthermore, the level of luciferase correlates well with levels of HCV RNA production, so that luciferase can be used as a reliable surrogate marker for HCV replication. The use of luciferase as a reporter permits quantitative and highthroughput detection of HCV replication levels. The specific use of firefly luciferase makes this replicon especially well-suited for automation, because the luciferase reagent can be added directly to the cell culture system prior to signal detection without the need for cell lysis, washing, or aspiration.
HCV Replicon System-Primary Screening. […] Briefly, this replicon harbors a subgenomic HCV genotype 1b sequence, fused to firefly luciferase, stably replicating under neomycin selection. Cells were propagated in Dulbecco's Modified Eagle's medium (DMEM) containing 10% fetal bovine serum (FBS) supplemented with 1% penicillin-streptomycin, and 500 μg of Geneticin (Invitrogen Corp., Carlsbad, Calif.)/mL. Cells were cultured in a 37° C., 5% CO2-humidified incubator for all experiments. To decrease day-today variability in the assay, a large homogenous population of subconfluent cells was passaged so that a similar lot of cells could be used throughout the HTS assay.
Primary Screening-HTS. Information about the library of known bioactive compounds that was screened and the general automated HTS protocol is available at http://www.broad.harvard.edu/chembio/index.html (see FIG. 10 for list of primary HTS with known bioactives library). Based on the results of optimization experiments in the 384-well plate format, the general HTS protocol was adapted as follows. Unless otherwise indicated, cells were incubated at all times in a humidified environment with 5% CO2 at 37° C. The assay was initiated by plating 30 μL of medium containing 2000 cells/well into white 384-well opaque-bottom plates (Nunc, Rochester, N.Y.) using an automated plate filler (Bio-Tek uFiller; Winsooki, Vt.) and allowing the cells to adhere for 24 hours. One hundred nL of compound stock solutions in DMSO was transferred from stock plates into the 384-well assay plates using an automated pin-based compound transfer robot (CyBio CyBi-Well vario; Woburn, Mass.). The final compound concentration in each well was estimated to be approximately 10-50 μM, with most compounds at 33 μM. The wells contained 0.33% DMSO by volume. The cells were then incubated for another 48 hours. The luminescent signal from each plate was detected using an automated plate reader (Perkin-Elmer Envision 1; Wellesley, Mass.). This screen was performed in duplicate. For negative controls, entire DMSO-treated control plates were employed, in addition to DMSO-only control wells that were incorporated into each compound assay plate. The cells were assayed for luciferase activity using the Bright-Glo Luciferase assay system (Promega), following the manufacturer's instructions. As a counter-screen, cell viability was assessed using the CellTiterGlo Luminescent cell viability assay (Promega) following the manufacturer's instructions.
Computational Data Analysis-Primary Screening. For each replicate, a mock-treatment distribution based on the total population of mock (DMSO) controls in that replicate was built (FIG. 11).

[2] = tested on: OR6 cells harboring full-length genotype 1b HCV replicon ORN/C-5B/KE (HCV RNA replication); experiment: microbe, parasite or virus in culture; format: cell-based, Hepatitis C virus (strain HCV—O; settings: 48 hours; for antiviral activity (in words): OR6 full-length replicon
From the text: (§1) HCV Replicon System-Secondary Assays. For validation, OR6 cells stably harboring the full-length genotype 1 replicon, ORN/C-5B/KE9 were used to examine compound activity in a more authentic viral polyprotein context. This replicon was derived from the 1B-2 strain (strain HCV—O, genotype 1b), in which the Renilla luciferase gene is introduced as a fusion protein with neomycin to facilitate the monitoring of HCV replication. This construct contains a tissue culture adaptive mutation in the NS3 region. Cells were cultured in an identical manner to the Huh7/Rep-Feo cells.
(§2) Secondary Assays-Hit Validation. Several hits from primary HTS, as well as functionally related compounds, were purchased from Sigma (St. Louis, Mo.), Calbiochem (San Diego, Calif.), and Microsource (Gaylordsville, Conn.). […] Ten mM of stock solutions of the individual compounds to be tested was prepared in the appropriate solvent (DMSO, ethanol, or H2O, according to the manufacturer's information) and stored at −20° C. Cells were seeded into 96-well plates at a density of 2000 cells/well in 100 μL of medium. The cells were incubated for 24 hours at 37° C. to obtain the optimal level of adherence. Solutions of candidate hit compounds were added to wells to achieve final concentrations of 0.1, 1, 10, 50, and 100 μM. The final concentration of DMSO or ethanol in every well was 1% or less by volume. Mock solutions were used as a negative control. PEG-IFN and ribavirin were used as positive controls at various concentrations, alone and in combination. The plates were then incubated at 37° C. with 5% CO2 for 48 hours before they were analyzed. Luminescent signal was generated using the Renilla luciferase assay kit (Promega) according to the manufacturer's instructions. Signal was then detected using a LumiCount (Packard BioScience Company) luminometer. Cell viability was assessed using CellTiter-Glo (Promega), following the manufacturer's instructions. All experiments were performed in triplicate.
(§3) Secondary Assays-Data Analysis. Values were presented as a percentage of mock treated control, which was arbitrarily set at 100%. Data were expressed as the mean (±) SD. […] Synergy calculations were performed using CalcuSyn (Biosoft; Cambridge, England).
as §1, with “System—Secondary Assays:” for “System-Secondary Assays.”, “For replicon” for “For”, “ORN/C-5B/KE” for “ORN/C-5B/KE9”, “(Burke J. Am. Chem. Soc. (2004) 126:14095-14104).” for “to examine compound activity in a more authentic viral polyprotein context.”, “the Neomycin resistance cassette” for “neomycin”
(§4) Secondary Assays—Hit Validation: 10 mM of stock solutions of the individual compounds to be tested were prepared in DMSO and stored at −20° C. Cells were seeded into 96-well plates at a density of 2,000 cells/well in 100 μl of medium. The cells were incubated for 24 hours at 37° C. to obtain the optimal level of adherence. Solutions of candidate hit compounds were added to wells to achieve varying final concentrations between 0.01 and 100 μM. The final concentration of DMSO or ethanol in every well was 1% or less by volume. Mock solutions were used as a negative control. Peginterferon-alfa-2b (PEG-Intron; Schering Corp.; Kenilworth, N.J.) and ribavirin (Sigma; St. Louis, Mo.) were used as positive controls at various concentrations, alone and in combination. The plates were then incubated at 37° C. with 5% CO2 for 48 hours before they were analyzed. Luminescent signal was generated using the Renilla luciferase assay kit (Promega; Madison, Wis.) according to the manufacturer's instructions. Signal was then detected using a LumiCount™ (Packard BioScience Company; Downers Grove, Ill.) luminometer.

OR6 cells = experiment: Secondary assay cell viability (CellTiter-Glo); settings: 48 hours
Description: as §2, §3
as §4, with “luminometer. Cell viability was assessed using CellTiter-Glo (Promega; Madison, Wis.), following the manufacturer's instructions. All experiments were performed in triplicate. Values were presented as a percentage of mock treated control, which was arbitrarily set at 100%. Data were expressed as the mean±SD.” for “luminometer.”
Secondary Assays—Data Analysis: Values were presented as a percentage of mock treated control, which was arbitrarily set at 100%. Data were expressed as the mean±SD.

[3] = tested on: Huh7/Rep-Feo HCV replicon; experiment: Optimization of Huh7/Rep-Feo cells for 96-/384-well plates with PEG-IFN as positive control; format: cell-based, Hepatitis C virus (strain HCV—N, genotype 1b); settings: 96-well plates; measurements at 24, 48, 72 hours
Description: Optimization of Huh-7/Rep-Feo Cells for the 384-Well Plate Format. The Huh7/Rep-Feo cells were first optimized for the 96-well plate format (FIG. 9). […] Cells were seeded at densities of 5000 and 10,000 cells/well in 100_L of medium in 96-well plates. The cells were allowed to attach overnight (approximately 24 hours) before addition of PEG-IFN at various concentrations (day 0). The plates were then incubated further, and measurements were taken at 24, 48, and 72 hours. At each time point, the plates were equilibrated at room temperature, an equal volume of Bright-Glo reagent (Promega, Madison, Wis.) was added, and the plates were read in a LumiCount (Packard BioScience Company, Downers Grove, Ill.) luminometer. […] Results were expressed as the mean of three replicate wells. […]
Optimization of Huh-7/Rep-Feo cells for the 384-well plate format: Cells were propagated in Dulbecco's Modified Eagle's medium (DMEM) containing 10% fetal bovine serum (FBS) supplemented with 1% penicillin-streptomycin, and 500 μg of Geneticin (Invitrogen Corp., Carlsbad, Calif.)/ml. […] At each time point, the plates were equilibrated at room temperature, an equal volume of Bright-Glo reagent (Promega, Madison, Wis.) was added, and the plates were read in a LumiCount™ (Packard BioScience Company, Downers Grove, Ill.) luminometer. […] Results were expressed as the mean of three replicate wells. […]

For `Clc1cccc(Nc2nnc(-c3ccccc3)c3ccccc23)c1` [MY-5445], the “primary screen hit result (in words)” value ([1]; known bioactives library, approximately 10-50 μM, most at 33 μM) was “Antiviral”, the “antiviral activity (in words)” value [2] was “decreased the luciferase signal in a dose-related manner” and the “cytotoxicity (in words)” value (OR6 cells) was “significant cytotoxicity”.

In the case of `CC[C@H](C)C(=O)O[C@H]1CCC=C2C=C[C@H](C)[C@H](CC[C@@H]3C[C@@H](O)CC(=O)O3)[C@H]21` [Mevastatin, mevastatin], the “antiviral activity (in words)” value [2] is reported as “weakly inhibitory” and the “cytotoxicity (in words)” value (OR6 cells) is reported as “not cytotoxic”.

With `C[S+]([O-])c1ccc(-c2nc(-c3ccncc3)c(-c3ccc(F)cc3)[nH]2)cc1` (centres unmarked) [SB 203580] the “primary screen hit result (in words)” value [1] was “Antiviral”, the “antiviral activity (in words)” value [2] was “antiviral activity at a concentration of 10 μM” and the “cytotoxicity (in words)” value (OR6 cells) was “cytotoxicity at higher concentrations”.

For `O=C1[C@@]2(CO)C=C(I)C(CC2c2ccccc2)[C@@]12CO2` (some centres unmarked) [SM_A14B5], the IC50 ([2]; Hepatitis C virus, OR6, 48 h, read-out: IC50 (HCV RNA replication, luciferase), OR6 full-length genotype 1b replicon) was about 3.5 µM and the “concentrations at which cytotoxic effects were exhibited” value (OR6 cells) was “above 30 μM”.

Peginterferon-alfa-2b [PEG-IFN] was tested, and the “antiviral activity over time (in words)” value [3] was “progressively increased over time”.
